Where two headings read alike, the source gives them in different places.
Tests used:
[1] = test system: PBMCs; assay: LPS-induced TNFα/IL-8 release in PBMC cells; format: cell-based; conditions: Homo sapiens, LPS-stimulated PBMCs
Experimental: Peripheral blood mononuclear cells (PBMCs) from healthy subjects are separated from whole blood using a density gradient (Lymphoprep, Axis-Shield Healthcare). The PBMCs are seeded in 96 well plates and treated with compounds at the desired concentration for 2 hours before addition of 1 ng/mL LPS (Escherichia Coli 0111:B4 from Sigma Aldrich) for 24 hours under normal tissue culture conditions (37° C., 5% CO2). The supernatant is harvested for determination of IL-8 and TNFα concentrations by sandwich ELISA (Duo-set, R&D systems) and read on the fluorescence microplate reader (Varioskan® Flash, ThermoFisher Scientific). The concentration at 50% inhibition (IC50) of IL-8 and TNFα production is calculated from the dose response curve.

[2] = molecular target: GSK3α (Homo sapiens (Human), UniProt P49840); assay: GSK 3α enzyme inhibition (FRET, Z-LYTE; Method 2); format: biochemical
Experimental: The enzyme inhibitory activities of compounds disclosed herein are determined by FRET using synthetic peptides labelled with both donor and acceptor fluorophores (Z-LYTE, Invitrogen Ltd., Paisley, UK).
The inhibitory activities of compounds of the invention against the GSK 3α enzyme isoform (Invitrogen), are evaluated by determining the level of activation/phosphorylation of the target peptide. The GSK3-α protein (500 ng/mL, 2.5 μL) is mixed with the test compound (2.5 μL at either 4 μg/mL, 0.4 μg/mL, 0.04 μg/mL, or 0.004 μg/mL) for 2 hr at RT. The FRET peptide (8 μM, 2.5 μL), which is a phosphorylation target for GSK3α, and ATP (40 μM, 2.5 μL) are then added to the enzyme/compound mixture and the resulting mixture incubated for 1 hr. Development reagent (protease, 5 μL) is added for 1 hr prior to detection in a fluorescence microplate reader (Varioskan® Flash, ThermoFisher Scientific).
In all cases, the site-specific protease cleaves non-phosphorylated peptide only and eliminates the FRET signal. Phosphorylation levels of each reaction are calculated using the ratio of coumarin emission (donor) over fluorescein emission (acceptor), for which high ratios indicate high phosphorylation and low ratios indicate low phosphorylation levels. The percentage inhibition of each reaction is calculated relative to non-inhibited control and the 50% inhibitory concentration (IC50 value) is then calculated from the concentration-response curve.
This method follows the same steps as Method 1 above, but utilises a shorter period of mixing of the test compound (105 minutes instead of 2 hours) with the GSK3-α protein.

[3] = IL-8, read-out: IC50 Values for Inhibition of Cytokine Release, PBMCs IL-8
[4] = TNFα, read-out: IC50 Values for Inhibition of Cytokine Release, PBMCs TNFα

Chain of GSK3α (P49840 whole entry): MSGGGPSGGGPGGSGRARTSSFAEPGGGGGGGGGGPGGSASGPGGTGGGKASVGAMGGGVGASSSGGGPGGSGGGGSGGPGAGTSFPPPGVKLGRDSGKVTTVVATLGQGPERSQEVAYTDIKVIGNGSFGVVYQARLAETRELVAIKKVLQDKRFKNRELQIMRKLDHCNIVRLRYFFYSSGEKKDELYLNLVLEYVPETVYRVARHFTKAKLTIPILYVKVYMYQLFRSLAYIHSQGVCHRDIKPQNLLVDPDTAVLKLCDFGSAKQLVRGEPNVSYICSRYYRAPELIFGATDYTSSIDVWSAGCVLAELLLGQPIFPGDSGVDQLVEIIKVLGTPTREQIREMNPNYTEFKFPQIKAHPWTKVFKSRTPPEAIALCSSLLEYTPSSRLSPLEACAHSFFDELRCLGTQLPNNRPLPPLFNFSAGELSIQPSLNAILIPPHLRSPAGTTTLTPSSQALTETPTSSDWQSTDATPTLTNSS

Row | Structure (SMILES) | IC50 [2] | IC50 [1, 3] | IC50 [1, 4]
1 | CC(C)(C)c1cc(NC(=O)Nc2ccc(Oc3ccnc(Nc4ccc5c(c4)NC(=O)C5)n3)c3ccccc23)n(-c2cccc(CP(C)(C)=O)c2)n1 [Example 33, 1-(3-(tert-Butyl)-1-(3-((dimethylphosphoryl)methyl)phenyl)-1H-pyrazol-5-yl)-3-(4-((2-((2-oxoindolin-6-yl)amino)pyrimidin-4-yl)oxy)naphthalen-1-yl)urea] | 326 nM | 2.4 nM | 
2 | COc1cc(Nc2nccc(Oc3ccc(NC(=O)Nc4cc(C(C)C)nn4-c4cccc(CP(C)(C)=O)c4)c4ccccc34)n2)cc(S(=O)(=O)C2CC2)c1 [Example 46, 1-(4-((2-((3-(Cyclopropylsulfonyl)-5-methoxyphenyl)amino)pyrimidin-4-yl)oxy)naphthalen-1-yl)-3-(1-(3-((dimethylphosphoryl)methyl)phenyl)-3-isopropyl-1H-pyrazol-5-yl)urea] | 1600 nM | 5.9 nM | 
3 | CC(C)(C)c1cc(NC(=O)Nc2ccc(Oc3ccnc(Nc4ccc5onc(N)c5c4)n3)c3ccccc23)n(-c2cccc(P(C)(C)=O)c2)n1 [Example 12] | 73 nM | 8.5 nM | 1.8 nM
4 | COc1cc(Nc2nccc(Oc3ccc(NC(=O)Nc4cc(C(C)(C)C)nn4-c4cccc(CP(C)(C)=O)c4)c4ccccc34)n2)cc(C(=O)NCCN2CCOCC2)c1 [Example 47, 3-((4-((4-(3-(3-(tert-Butyl)-1-(3-((dimethylphosphoryl)methyl)phenyl)-1H-pyrazol-5-yl)ureido)naphthalen-1-yl)oxy)pyrimidin-2-yl)amino)-5-methoxy-N-(2-morpholinoethyl)-benzamide] | 406 nM | 0.8 nM | 
5 | CC(C)(C)c1cc(NC(=O)Nc2ccc(Oc3ccnc(Nc4ccc5c(c4)NC(=O)C5)n3)c3ccccc23)n(-c2ccc(P(C)(C)=O)cc2)n1 [Example 14, 1-(3-(tert-Butyl)-1-(4-(dimethylphosphoryl)phenyl)-1H-pyrazol-5-yl)-3-(4-((2-((2-oxoindolin-6-yl)amino)pyrimidin-4-yl)oxy)naphthalen-1-yl)urea] | 294 nM | 13.2 nM | 4 nM
6 | COc1cc(Nc2nccc(Oc3ccc(NC(=O)Nc4cc(C(C)C)nn4-c4cccc(CP(C)(C)=O)c4)c4ncccc34)n2)cc(OCCN2CCOCC2)c1 [Example 54, 1-(1-(3-((Dimethylphosphoryl)methyl)phenyl)-3-isopropyl-1H-pyrazol-5-yl)-3-(5-((2-((3-methoxy-5-(2-morpholinoethoxy)phenyl)amino)pyrimidin-4-yl)oxy)quinolin-8-yl)urea] | > 10000 nM | 27.4 nM | 
7 | CC(C)(C)c1cc(NC(=O)Nc2ccc(Oc3ccnc(NCCCO)n3)c3ccccc23)n(-c2ccc(P(C)(C)=O)cc2)n1 [Example 31, 1-(3-(tert-Butyl)-1-(4-(dimethylphosphoryl)phenyl)-1H-pyrazol-5-yl)-3-(4-((2-((3-hydroxy-propyl)amino)pyrimidin-4-yl)oxy)naphthalen-1-yl)urea] | 211 nM | 90.2 nM | 
8 | CC(C)(C)c1cc(NC(=O)Nc2ccc(Oc3ccnc(Nc4cccc(C(=O)NCCN5CCOCC5)c4)n3)c3ccccc23)n(-c2ccc(P(C)(C)=O)cc2)n1 [Example 24, 3-((4-((4-(3-(3-(tert-Butyl)-1-(4-(dimethylphosphoryl)phenyl)-1H-pyrazol-5-yl)ureido)-naphthalen-1-yl)oxy)pyrimidin-2-yl)amino)-N-(2-morpholinoethyl)benzamide] | 293 nM | 26.3 nM | 
9 | CC(C)(C)c1cc(NC(=O)Nc2ccc(Oc3ccnc(Nc4cccc(OCCN5CCOCC5)c4)n3)c3ccccc23)n(-c2ccc(P(C)(C)=O)cc2)n1 [Example 17, 1-(3-(tert-Butyl)-1-(4-(dimethylphosphoryl)phenyl)-1H-pyrazol-5-yl)-3-(4-((2-((3-(2-morpholinoethoxy)phenyl)amino)pyrimidin-4-yl)oxy)naphthalen-1-yl)urea] | 74 nM | 5.4 nM | 1.8 nM
10 | CC(C)(C)c1cc(NC(=O)Nc2ccc(Oc3ccnc(Nc4ccc5onc(N)c5c4)n3)c3ccccc23)n(-c2ccc(P(C)(C)=O)cc2)n1 [Example 20, 1-(4-((2-((3-Aminobenzo[d]isoxazol-5-yl)amino)pyrimidin-4-yl)oxy)naphthalen-1-yl)-3-(3-(tert-butyl)-1-(4-(dimethylphosphoryl)phenyl)-1H-pyrazol-5-yl)urea] | 68 nM | 9 nM | 
11 | CCOP(C)(=O)c1ccc(-n2nc(C(C)(C)C)cc2NC(=O)Nc2ccc(Oc3ccnc(Nc4ccccc4)n3)c3ccccc23)cc1 (stereo not shown) [Example 9, Ethyl (4-(3-(tert-butyl)-5-(3-(4-((2-(phenylamino)pyrimidin-4-yl)oxy)naphthalen-1-yl)-ureido)-1H-pyrazol-1-yl)phenyl)(methyl)phosphinate] | 1440 nM | 24 nM | 6.2 nM

More lines, main results first:

Row | IC50 [2] | Structure (SMILES) | IC50 [1, 3] | IC50 [1, 4]
12 | 188 nM | CC(C)c1cc(NC(=O)Nc2ccc(Oc3ccnc(Nc4cc(OCCN5CCOCC5)cc(S(C)(=O)=O)c4)n3)c3ccccc23)n(-c2cccc(CP(C)(C)=O)c2)n1 [Example 53, 1-(1-(3-((Dimethylphosphoryl)methyl)phenyl)-3-isopropyl-1H-pyrazol-5-yl)-3-(4-((2-((3-(methylsulfonyl)-5-(2-morpholinoethoxy)phenyl)amino)pyrimidin-4-yl)oxy)naphthalen-1-yl)urea] | 2 nM | 
13 | 849 nM | CC(C)(C)c1cc(NC(=O)Nc2ccc(Oc3ccnc(Nc4ccccc4)n3)c3ccccc23)n(-c2ccc(P3(=O)CCCC3)cc2)n1 [Example 8, 1-(3-(tert-Butyl)-1-(4-(1-oxidophospholan-1-yl)phenyl)-1H-pyrazol-5-yl)-3-(4-((2-(phenylamino)pyrimidin-4-yl)oxy)naphthalen-1-yl)urea] | 17.2 nM | 4.8 nM
14 | 486 nM | CC(C)(C)c1cc(NC(=O)Nc2ccc(Oc3ccnc(Nc4ccc5[nH]ncc5c4)n3)c3ccccc23)n(-c2ccc(P(C)(C)=O)cc2)n1 [Example 7, 1-(4-((2-((1H-Indazol-5-yl)amino)pyrimidin-4-yl)oxy)naphthalen-1-yl)-3-(3-(tert-butyl)-1-(4-(dimethylphosphoryl)phenyl)-1H-pyrazol-5-yl)urea] | 6.7 nM | 2.5 nM
15 | 1670 nM | COCCOCCOCCOCCOCCOc1cc(Nc2nccc(Oc3ccc(NC(=O)Nc4cc(C(C)C)nn4-c4cccc(CP(C)(C)=O)c4)c4ccccc34)n2)cc(OC)c1 [Example 55, 1-(4-((2-((3-(2,5,8,11,14-Pentaoxahexadecan-16-yloxy)-5-methoxyphenyl)amino)-pyrimidin-4-yl)oxy)naphthalen-1-yl)-3-(1-(3-((dimethylphosphoryl)methyl)phenyl)-3-isopropyl-1H-pyrazol-5-yl)urea] | 5.4 nM | 
16 | 205 nM | CC(C)(C)c1cc(NC(=O)Nc2ccc(Oc3ccnc(Nc4ccc5c(c4)NC(=O)C5)n3)c3ccccc23)n(-c2cccc(P(C)(C)=O)c2)n1 [Example 11] | 16.2 nM | 2.7 nM
17 | 183 nM | CC(C)(C)c1cc(NC(=O)Nc2ccc(Oc3ccnc(Nc4ccccc4)n3)c3ccccc23)n(-c2ccc(CP(C)(C)=O)cc2)n1 [Example 6, 1-(3-(tert-Butyl)-1-(4-((dimethylphosphoryl)methyl)phenyl)-1H-pyrazol-5-yl)-3-(4-((2-(phenylamino)pyrimidin-4-yl)oxy)naphthalen-1-yl)urea] | 6.4 nM | 2.5 nM
18 | 174 nM | C#Cc1cc(Nc2nccc(Oc3ccc(NC(=O)Nc4cc(C(C)C)nn4-c4cccc(CP(C)(C)=O)c4)c4ccccc34)n2)cc(C(=O)NCCN2CCOCC2)c1 [Example 43, 3-((4-((4-(3-(1-(3-((Dimethylphosphoryl)methyl)phenyl)-3-isopropyl-1H-pyrazol-5-yl)ureido)naphthalen-1-yl)oxy)pyrimidin-2-yl)amino)-5-ethynyl-N-(2-morpholinoethyl)benzamide] | 1.6 nM | 
19 | 76 nM | CC(C)(C)c1cc(NC(=O)Nc2ccc(Oc3ccnc(Nc4ccccc4)n3)c3ccccc23)n(-c2ccc(P(C)(=O)O)cc2)n1 [Example 19, (4-(3-(tert-Butyl)-5-(3-(4-((2-(phenylamino)pyrimidin-4-yl)oxy)naphthalen-1-yl)ureido)-1H-pyrazol-1-yl)phenyl)(methyl)phosphinic acid] | 407 nM | 

From US9796742B2, “Kinase inhibitors” (Respivert Limited, priority 2012, dated 2017)
